Results taken from PubChem BioAssay AID2060332 (Molecular Pharmacology Branch, DTP, NCI, 2025).

System: LG0567-F671-PDC multi-cell spheroid viability
Test: Anticancer human tumor LG0567-F671-PDC patient-derived lung adenocarcinoma cell line growth inhibition [IpAb]
Settings: for IC50: curve of first compound; for viability, T/C: stronger effect = lower value
Method in brief: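 Multi-cell spheroids of 60% tumour cells, 25% HUVEC and 15% MSC in ultra-low-attachment U-bottom wells, treated with agents combined with ipatasertib or abemaciclib. Half-log ranges top out near clinical Cmax, or 10 microM when Cmax is unknown.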
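Also: viability read after 7 days of drug exposure.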
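For viability, T/C in this document: 100% = DMSO vehicle control luminescence.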

Compound: C=CC(=O)N1CCN(c2nc(=O)n(-c3c(C)ccnc3C(C)C)c3nc(-c4c(O)cccc4F)c(F)cc23)C(C)C1 (stereo not given) + CC(C)NCC(C(=O)N1CCN(c2ncnc3c2C(C)CC3O)CC1)c1ccc(Cl)cc1
- IC50 (second compound 0.1 µM): < 31.6 nM
- IC50 (second compound 0.316 µM): < 31.6 nM
- IC50 (second compound 1 µM): < 31.6 nM
- IC50 (second compound 3.16 µM): < 31.6 nM
- IC50 (second compound 10 µM): < 31.6 nM
- viability, T/C (second compound 0.1 µM, first compound 0.0316 µM): 20%
- viability, T/C (second compound 0.1 µM, first compound 0.1 µM): 15.1%
- viability, T/C (second compound 0.1 µM, first compound 0.316 µM): 15.1%
- viability, T/C (second compound 0.1 µM, first compound 1 µM): 14.7%
- viability, T/C (second compound 0.1 µM, first compound 3.16 µM): 15.9%
- viability, T/C (second compound 0.1 µM, first compound 10 µM): 16.6%
- viability, T/C (second compound 0.316 µM, first compound 0.0316 µM): 12.9%
- viability, T/C (second compound 0.316 µM, first compound 0.1 µM): 16.1%
- viability, T/C (second compound 0.316 µM, first compound 0.316 µM): 15.5%
- viability, T/C (second compound 0.316 µM, first compound 1 µM): 14.8%
- viability, T/C (second compound 0.316 µM, first compound 3.16 µM): 8.74%
- viability, T/C (second compound 0.316 µM, first compound 10 µM): 9.44%
- viability, T/C (second compound 1 µM, first compound 0.0316 µM): 13.8%
- viability, T/C (second compound 1 µM, first compound 0.1 µM): 13.9%
- viability, T/C (second compound 1 µM, first compound 0.316 µM): 13.1%
- viability, T/C (second compound 1 µM, first compound 1 µM): 10.5%
- viability, T/C (second compound 1 µM, first compound 3.16 µM): 10.2%
- viability, T/C (second compound 1 µM, first compound 10 µM): 8.39%
- viability, T/C (second compound 3.16 µM, first compound 0.0316 µM): 14.9%
- viability, T/C (second compound 3.16 µM, first compound 0.1 µM): 15.8%
- viability, T/C (second compound 3.16 µM, first compound 0.316 µM): 11.4%
- viability, T/C (second compound 3.16 µM, first compound 1 µM): 10.6%
- viability, T/C (second compound 3.16 µM, first compound 3.16 µM): 10.4%
- viability, T/C (second compound 3.16 µM, first compound 10 µM): 10.6%
- viability, T/C (second compound 10 µM, first compound 0.0316 µM): 13.5%
- viability, T/C (second compound 10 µM, first compound 0.1 µM): 11%
- viability, T/C (second compound 10 µM, first compound 0.316 µM): 10.1%
- viability, T/C (second compound 10 µM, first compound 1 µM): 10%
- viability, T/C (second compound 10 µM, first compound 3.16 µM): 12.5%
- viability, T/C (second compound 10 µM, first compound 10 µM): 9.01%
